# Test results from patent US20220273631A1, “METHOD FOR TREATING SEXUAL DYSFUNCTION” (Catalyst Pharmaceuticals, Inc., priority 2019, published 2022).
# System: subject one
# Test: Female Sexual Functioning Index (FSFI) self-report before and after 4-week oral treatment
# Type: in vivo, human
# Conditions: for FSFI: confidence about becoming sexually aroused / FSFI: difficulty to become lubricated / FSFI: difficulty to maintain lubrication until completion / FSFI: difficulty to reach orgasm / FSFI: how often became lubricated / FSFI: how often felt sexual desire or interest / FSFI: how often felt sexually aroused / FSFI: how often maintained lubrication until completion / FSFI: how often reached orgasm / FSFI: how often satisfied with arousal / FSFI: level of sexual arousal / FSFI: level of sexual desire or interest / FSFI: satisfaction with ability to reach orgasm / FSFI: satisfaction with amount of emotional closeness with partner / FSFI: satisfaction with overall sexual life / FSFI: satisfaction with sexual relationship with partner: post-treatment FSFI
# Source text: The “Female Sexual Functioning Index” or “FSFI” is a 19-item self-report inventory designed to assess female sexual function. It comprises six domains: desire (two items)], arousal (four items), lubrication (four items), orgasm, satisfaction, and pain (three items each).
# The therapeutic efficacy of 3,4-diaminopyridine and its salts in the present methods can be determined by clinicians, for example, by using appropriate self-report inventories or questionnaires. In some embodiments, the therapeutic efficacy of 3,4-diaminopyridine, or a pharmaceutically acceptable thereof, in the present methods in female subjects can be assessed by the Female Sexual Functioning Index (FSFI) designed to measure sexual functioning in women. See, e.g., Rosen et al., Journal of Sex and Marital Therapy 26:191-208 (2000).
# subject one self-reported their sexual functioning for the past 4 weeks using the FSFI questionnaire (“the pre-treatment FSFI”).
# The subject then orally self-administered a total daily dose of 80 mg of 3,4-diaminopyridine phosphate salt for 4 weeks. The last dose of each day was self-administered at about 5:30 pm. The timing of their sexual activity, if any, was in the evening.
# After the 4-week treatment period, the subject self-reported their sexual functioning for the past 4 weeks using the FSFI questionnaire (“the post-treatment FSFI”).
# The subject then orally self-administered a total daily dose of 60 mg of 3,4-diaminopyridine phosphate salt for 4 weeks. The last dose of each day was self-administered at about 6 pm. The timing of their sexual activity, if any, was in the evening at 8-9 pm.
# The subject then orally self-administered a total daily dose of 40 mg of 3,4-diaminopyridine phosphate salt for 4 weeks. The last dose of each day was self-administered at about 11 pm (5 mg). The timing of their sexual activity, if any, was in the morning, afternoon, and at night.
# [1] = Example 1 subject one, total daily dose 80 mg orally for 4 weeks
# [2] = Example 2 subject one, total daily dose 60 mg orally for 4 weeks
# [3] = Example 3 subject one, total daily dose 40 mg orally for 4 weeks
# [4] = four week course of an effective daily dose, general statement
smiles,measurement,setting,value
"Nc1ccncc1N.O=P(O)(O)O [3,4-diaminopyridine phosphate salt]",confidence while being treated (subject report),[1],more confident
same,emotional experience with partner (subject report),[1],better
same,time to reach orgasm (subject report),[1],shorter
same,FSFI: confidence about becoming sexually aroused,[1],very high
same,FSFI: difficulty to become lubricated,[1],slightly difficult
same,FSFI: difficulty to maintain lubrication until completion,[1],slightly difficult
same,FSFI: difficulty to reach orgasm,[1],not difficult
same,FSFI: how often became lubricated,[1],most times
same,FSFI: how often felt sexual desire or interest,[1],almost always or always
same,FSFI: how often felt sexually aroused,[1],almost always or always
same,FSFI: how often maintained lubrication until completion,[1],most times
same,FSFI: how often reached orgasm,[1],most times
same,FSFI: how often satisfied with arousal,[1],most times
same,FSFI: level of sexual arousal,[1],high
same,FSFI: level of sexual desire or interest,[1],moderate
same,FSFI: satisfaction with ability to reach orgasm,[1],very satisfied
same,FSFI: satisfaction with amount of emotional closeness with partner,[1],very satisfied
same,FSFI: satisfaction with overall sexual life,[1],very satisfied
same,FSFI: satisfaction with sexual relationship with partner,[1],very satisfied
same,confidence while being treated (subject report),[2],more confident
same,emotional experience with partner (subject report),[2],better
same,time to reach orgasm (subject report),[2],shorter
same,FSFI: confidence about becoming sexually aroused,[2],very high
same,FSFI: difficulty to become lubricated,[2],not difficult
same,FSFI: difficulty to maintain lubrication until completion,[2],not difficult
same,FSFI: difficulty to reach orgasm,[2],not difficult
same,FSFI: how often became lubricated,[2],almost always or always
same,FSFI: how often felt sexual desire or interest,[2],almost always or always
same,FSFI: how often felt sexually aroused,[2],most times
same,FSFI: how often maintained lubrication until completion,[2],almost never or never
same,FSFI: how often reached orgasm,[2],almost always or always
same,FSFI: how often satisfied with arousal,[2],almost always or always
same,FSFI: level of sexual arousal,[2],very high
same,FSFI: level of sexual desire or interest,[2],very high
same,FSFI: satisfaction with ability to reach orgasm,[2],very satisfied
same,FSFI: satisfaction with amount of emotional closeness with partner,[2],very satisfied
same,FSFI: satisfaction with overall sexual life,[2],very satisfied
same,FSFI: satisfaction with sexual relationship with partner,[2],very satisfied
same,"orgasms experienced after taking the drug, not experienced before (subject report)",[3],multiple orgasms
same,FSFI: confidence about becoming sexually aroused,[3],very high
same,FSFI: difficulty to become lubricated,[3],not difficult
same,FSFI: difficulty to maintain lubrication until completion,[3],not difficult
same,FSFI: difficulty to reach orgasm,[3],not difficult
same,FSFI: how often became lubricated,[3],almost always or always
same,FSFI: how often felt sexual desire or interest,[3],almost always or always
same,FSFI: how often felt sexually aroused,[3],almost always or always
same,FSFI: how often maintained lubrication until completion,[3],almost always or always
same,FSFI: how often reached orgasm,[3],almost always or always
same,FSFI: how often satisfied with arousal,[3],almost always or always
same,FSFI: level of sexual arousal,[3],very high
same,FSFI: level of sexual desire or interest,[3],very high
same,FSFI: satisfaction with ability to reach orgasm,[3],very satisfied
same,FSFI: satisfaction with amount of emotional closeness with partner,[3],very satisfied
same,FSFI: satisfaction with overall sexual life,[3],very satisfied
same,FSFI: satisfaction with sexual relationship with partner,[3],very satisfied
same,sexual functioning of subjects suffering from sexual dysfunction,"daily oral administration, general statement",overall improvement
same,orgasmic ability (FSFI before and after),[4],increased orgasmic ability
same,sexual desire (FSFI before and after),[4],increased sexual desire
same,sexual satisfaction (FSFI before and after),[4],increased sexual satisfaction
